Measurements: US20240376055A1, “INHIBITORS OF TRANSGLUTAMINASES” (Zedira GmbH, priority 2021, published 2024)

How the values were obtained:
[1] = molecular target: T1, recombinant human transglutaminase 2 (Homo sapiens, UniProt P21980); assay: Transglutaminase assay (DCC-assay: dansylcadaverine incorporation into dimethylcasein); assay type: biochemical; details: for IC50: 10 nM TG2, 37° C., slope 20-30 min
T1 construct: purchased Zedira T022
T1 sequence (P21980 1-687): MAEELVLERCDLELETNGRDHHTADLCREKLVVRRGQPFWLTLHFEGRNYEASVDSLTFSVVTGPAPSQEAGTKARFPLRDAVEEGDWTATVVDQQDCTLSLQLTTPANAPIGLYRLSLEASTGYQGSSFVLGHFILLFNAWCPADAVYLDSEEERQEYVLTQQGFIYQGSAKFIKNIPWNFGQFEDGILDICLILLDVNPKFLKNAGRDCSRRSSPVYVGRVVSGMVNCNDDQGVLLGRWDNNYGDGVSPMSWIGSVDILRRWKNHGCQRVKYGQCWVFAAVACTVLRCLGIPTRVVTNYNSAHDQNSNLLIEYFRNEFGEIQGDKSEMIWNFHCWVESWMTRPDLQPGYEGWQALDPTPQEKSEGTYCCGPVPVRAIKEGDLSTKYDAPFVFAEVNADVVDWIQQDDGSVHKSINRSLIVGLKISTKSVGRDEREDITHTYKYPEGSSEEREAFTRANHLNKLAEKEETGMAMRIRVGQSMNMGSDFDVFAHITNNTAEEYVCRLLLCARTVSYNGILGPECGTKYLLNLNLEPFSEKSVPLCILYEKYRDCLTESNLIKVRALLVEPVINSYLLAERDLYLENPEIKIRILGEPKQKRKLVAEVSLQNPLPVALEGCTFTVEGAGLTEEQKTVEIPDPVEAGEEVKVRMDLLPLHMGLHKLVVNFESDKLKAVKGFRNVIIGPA
Method: To illustrate the advantage of branched alkyl moieties over aromatic moieties, we refer to reference compounds Ref. 2 (ZED1227, U.S. Pat. No. 9,434,763 B2) and Ref. 3 (A8, ZED1047). Inhibition data were determined using the classical fluorescent transamidation assay (dansylcadaverine incorporation into methylated casein, DCC-assay) as described [Büchold, C.; Hils, M.; Gerlach, U.; Weber, J.; Pelzer, C.; Heil, A.; Aeschlimann, D.; Pasternack, R. Features of ZED1227: The First-In-Class Tissue Transglutaminase Inhibitor Undergoing Clinical Evaluation for the Treatment of Celiac Disease. Cells 2022, 11, 1667. https://doi.org/10.3390/cells11101667]. Casein is one of the best known high molecular weight (24 kDa) protein substrates for transglutaminases. Please note, the IC50 value of Ref. 3 (A8) published in U.S. Pat. No. 9,434,763 B2 cannot be compared to the present data, relying on a fluorogenic isopeptidase assay.
To this extent, inhibition data were determined using the classical fluorescent transamidation assay (dansylcadaverine incorporation into methylated casein, DCC-assay) as described in Büchold et al. [Buchold, C.; Hils, M.; Gerlach, U.; Weber, J.; Pelzer, C.; Heil, A.; Aeschlimann, D.; Pasternack, R. Features of ZED1227: The First-In-Class Tissue Transglutaminase Inhibitor Undergoing Clinical Evaluation for the Treatment of Celiac Disease. Cells 2022, 11, 1667. https://doi.org/10.3390/cells11101667]. Casein is one of the best known high molecular weight (24 kDa) protein substrates for transglutaminases. Inhibition data of the inventive compounds was compared with inhibition of compounds disclosed in U.S. Pat. No. 9,434,763 B2, particularly, compound A8, which is denoted herein as Reference 3. It is noteworthy that the IC50 values of compounds A8 published in U.S. Pat. No. 9,434,763 B2 and E16 from U.S. Pat. No. 11,072,634 B2 cannot be compared to the present data, relying on a fluorogenic isopeptidase assay.
For the determination of potency of inhibitors against tissue transglutaminase, the incorporation of dansylcadaverine into dimethylcasein (Zedira product T036, Lorand et al., Anal Biochem, 1971, 44:221-31) was measured using recombinant human transglutaminase 2 (Zedira Product T022).
The tissue transglutaminase is diluted in buffer (50 mM Tris-HCl, 7.5 mM CaCl2), 150 mM NaCl, pH=7.4). The final concentration of TG2 in the assay is 10 nM. A 10 mM inhibitor stock solution is prepared in DMSO, and from this a serial 1:2-fold dilution series is prepared also in DMSO. […]
Increase in fluorescence is measured using λex=330 nm and λem=500 nm at 37° C. for 30 min. […]
Analysis of enzymatic activity is performed by calculation of the slope of an increase in fluorescence intensity. […]

[2] = Log D by shake flask method (octanol / PBS pH 7.4, HPLC); assay type: physicochemical; details: octanol/phosphate-buffered saline; octanol / PBS pH 7.4, shake flask
Method: In order to classify the inventive compounds according to their lipophilicity, Log D values (distribution coefficient) were determined by means of the well-established shake flask method, measuring the partition of a compound between an octanol and phosphate-buffered saline (PBS, pH 7.4) by HPLC.
Compounds with a moderate lipophilicity (Log D values from 0 to 3) are usually advantaged for oral absorption, being in balance between solubility and permeability. However, sophisticated formulation of a compound might improve oral bioavailability for highly lipophilic compounds.

[3] = Caco-2 permeability assay (CacoReady kit); assay type: in vitro ADME; details: human; Caco-2 barrier
Method: Permeability coefficients (Papp values) were obtained from Caco-2 barrier studies predicting oral/intestinal bioavailability of the tested compounds. The assays were performed by using CacoReady™ ready-to-use kits from ReadyCell according to the manufacturers protocol.

fold more potent compared to Ref. 3 ([1]; DCC-assay, compared to Ref. 3 (A8)) [fold] | fold more potent compared to Ref. 4 ([1]; compared to Ref. 4, table 1) | logD [2] | IC50 [1] [nM] | Papp [3] [×10⁻⁶ cm/s] | SMILES
80 | – | – | – | – | CCC(CC)CNC(=O)Cn1cccc(NC(=O)[C@H](CC/C=C/C(=O)OC)NC(=O)c2cncn2C)c1=O [Ref. 2, reference compound]
– | about 15 fold | – | – | – | CCC(CC)CNC(=O)Cn1cccc(NC(=O)[C@H](CCC(=O)C(=O)NC)NC(=O)c2cncn2C)c1=O [Ref. 1, reference compound]
– | – | 1 to 3 | 150 to 600 | < 1 | CCNC(=O)C(=O)CC[C@H](NC(=O)c1ccn(C)n1)C(=O)Nc1cccn(CC(=O)N[C@]23C[C@H]4C5CC6CC4[C@H](C2)C(C6)[C@H]5C3)c1=O (single isomer, unassigned) [Compound I-80]
– | – | 1 to 3 | 600 to 3500 | 1 to 10 | CCNC(=O)C(=O)CC[C@H](NC(=O)c1ncc(OC)o1)C(=O)Nc1cccn(CCC(=O)NC2C3CC4CC(C3)CC2C4)c1=O (stereo partly drawn) [Compound I-87, (S)-N1-(1-(3-(2-adamantylamino)-3-oxopropyl)-2-oxo-1,2-dihydropyridin-3-yl)-N6-ethyl-2-(5-methoxyoxazole-2-carboxamido)-5-oxohexanediamide]
